The subject of the assay is CEM cells HIV-1 protection, formazan growth assay. In words: NCI AIDS Antiviral Assay. The note with it: for IC50: measured here: growth of uninfected CEM cells. Put shortly:
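Human CEM cells, uninfected and HIV-1-infected, exposed to five drug concentrations; growth measured by soluble formazan assay and scored as percent protection from infection, with protecting compounds retested.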

Several values for one entry are separate records, joined by “and”; a condition that tells them apart may be missing. Equal values may be shown once. Activity calls are given as the source filed them.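 How the source made its calls: active means compounds giving half or more protection of infected cells from virus-caused growth loss, again on retest; inactive means the rest.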

Consider 69 compounds from PubChem BioAssay AID179 (DTP/NCI, 2004).

One may read the EC50 as the concentration giving half of the maximal effect. By IC50 is commonly meant the concentration needed to halve the response being measured. High values mean a need for much substance, low ones inhibition by little substance.

For `CCC12C=CCN3CC[C@@]4(c5cc([C@@]6(C(=O)OC)CC7CN(C[C@]8(CC)OC78)[C@H](CC(C)=O)Cc7c6[nH]c6ccccc76)c(OC)cc5N(C)[C@H]4[C@@](O)(C(=O)OC)[C@@H]1OC(C)=O)[C@H]32` (some centres not stated), the outcome was inactive.
`COc1ccc(/C(=N/O)c2ccccc2-c2nc3ccccc3c(=O)n2-c2ccc(S(=O)(=O)Nc3nccs3)cc2)cc1C`: the EC50 was greater than 50.1 µM and the IC50 was greater than 50.1 µM.
As to `c1ccc(Cc2ccc(SSc3ccc(Cc4ccccc4)cc3)cc2)cc1`, the EC50 is greater than 200 µM and the IC50 is 26.9 µM.
`CCCCN(CCCC)CC(=O)Nc1ccc(C(=O)OCC(C)C)cc1`: the EC50 is greater than 200 µM and the IC50 was greater than 200 µM.
As for `C#[N+]CCOP(=O)(OCC1OC(n2cc(C)c(=O)[nH]c2=O)CC1N=[N+]=[N-])O[C@H]1CC[C@@]2(C)C(=CC[C@H]3[C@@H]4CC[C@H](C(C)/C=C/C(CC)C(C)C)[C@@]4(C)CC[C@@H]32)C1` (some centres not stated), the EC50 was 1.62 µM and 5.89 µM; the 50% inhibitory concentration (IC50) is greater than 200 µM.
`COc1ccc(N=C(CS(=O)c2ccc(C)cc2)C(F)(F)F)cc1` (configuration not stated): the EC50 is greater than 200 µM and the IC50 was determined as 91.2 µM.
Turning to `O=C=NCCCCCCN1C(=O)N2C(c3ccccc3)N(CCCCCCN=C=O)C(=O)N2C1c1ccccc1` (configuration not stated), the outcome was inactive.
For `Nc1nc(NCCOCP(=O)(O)O)c(C=O)c(=O)[nH]1`, the EC50 was greater than 200 µM and the IC50 is greater than 200 µM.
For `COc1cc2c[n+](C)c3c(c2cc1OC)Cc1cc(OS(C)(=O)=O)c(OC)cc1-3`, the EC50 is greater than 57.5 µM and the IC50 was 10.5 µM.
The like results for `O=[N+]([O-])c1ccc(/C=C/c2ccc(N=Nc3ccc(/C=C/c4ccc([N+](=O)[O-])cc4S(=O)(=O)O)c(S(=O)(=O)O)c3)cc2S(=O)(=O)O)c(S(=O)(=O)O)c1` were, in that order, 12.6 µM and greater than 200 µM.
For `CC1=CC(C)(C)NC(=S)N1c1ccc(C)c(N2C(=S)NC(C)(C)C=C2C)c1`, the outcome was inactive.
For the compound `C=C1C(=O)OC2CC(C)C3C(OC(C)=O)CC(OC(C)=O)C3(C)CC12` (configuration not stated), the EC50 was greater than 97.7 µM and the 50% inhibitory concentration (IC50) came out at 6.76 µM.
Taken in the same sequence, the figures for `Cc1nc2cc(N)c(F)cc2[nH]1` were greater than 537 µM and greater than 537 µM.
Taken in the same sequence, the figures for `CC(C)N(C(C)C)P1O[PH+](N(C(C)C)C(C)C)OP(N(C(C)C)C(C)C)O[PH+](N(C(C)C)C(C)C)O1.[C-]#[O+].[C-]#[O+].[C-]#[O+].[C-]#[O+].[W]` (configuration not stated) were greater than 200 µM and greater than 200 µM.
`CC(=O)Nc1ccc(-c2nnc(SCC(=O)Nc3ccc(C)cc3)o2)cc1`: the EC50 was greater than 67.6 µM and the half-maximal inhibitory concentration (IC50) was 11.7 µM.
In the case of `O=S1(=O)[C@H](c2ccccc2)c2c(-c3ccccc3)sc(-c3ccccc3)c2[C@@H]1c1ccccc1`, the outcome was inactive.
For `CCOc1ccc2nc(NC(=O)C(=O)C(C(=O)c3ccccc3-c3ccccc3)C3OC(=O)c4ccccc43)sc2c1` (configuration not stated), the EC50 was greater than 309 µM and the IC50 is 132 µM.
Taken in the same sequence, the figures for `COc1ccccc1Nc1nc(NNC(=O)Cc2ccccc2)nc(NNC(=O)c2ccncc2)n1` were greater than 50.1 µM and greater than 50.1 µM.
Taken in the same sequence, the figures for `COc1ccc(-n2nc3c(N)nnc-3nc2-c2ccccc2)cc1` were greater than 4.07 µM and greater than 4.07 µM.
Taken in the same sequence, the figures for `CN(C(=O)C1=CCCCCC1)c1ccccc1Br` were greater than 813 µM and 389 µM.
On to `CC(=O)Oc1ccc(C)c2c1[C@H]1CC[C@]3(C)[C@@H](OC(C)=O)CC[C@H]3[C@@H]1CC2`, for which the EC50 is greater than 200 µM and the IC50 came to 32.4 µM.
The like results for `CC1=Nc2cc(C(=O)c3ccccc3)ccc2N=C(c2c(O)c3ccc4ccccc4c3oc2=O)C1` were, in that order, greater than 20 µM and greater than 20 µM.
Taken in the same sequence, the figures for `COCCOC(=O)C1=C(O)c2ccccc2S(=O)(=O)N1C` were greater than 794 µM and 562 µM.
The like results for `O=C(O)CCC1C(=O)C2CCN1CC2` (configuration not stated) were, in that order, greater than 200 µM and greater than 200 µM.
`COC(=O)CNC(=O)C(CSC(=O)OCC1c2ccccc2-c2ccccc21)NC(=O)CCC(NC(=O)OCC1c2ccccc2-c2ccccc21)C(=O)OC` (configuration not stated): the EC50 was greater than 200 µM and the IC50 is 29.5 µM.
Taken in the same sequence, the figures for `O=C(Nc1ccccc1)c1ccccc1[Se][Se]c1ccccc1C(=O)Nc1ccccc1` were 5.37 µM and 9.55 µM.
As for `CC(C(=O)O)/C(=C\c1ccc2c(c1)OCO2)C(=O)O` (configuration not stated), the result was inactive.
The same measure, in the same setting: the entry for `O=C1N2CCCSC2=NC1(c1ccccc1)c1ccccc1` is “inactive”.
For `CNP1(NC)=NP(NC)(NC)=NP(NC)(NC)=NP(NC)(NC)=N1`, the EC50 was greater than 3.47 µM and the IC50 is greater than 3.47 µM.
Turning to `Cc1ccc(/C=C2\NC(=S)NC2=O)cc1`, the EC50 was greater than 200 µM and the IC50 is greater than 200 µM.
On to `O=C1/C(=C/c2cccc(Br)c2)CSC/C1=C\c1cccc(Br)c1`, for which the EC50 is greater than 200 µM and the concentration for half-maximal inhibition (IC50) is 2.88 µM.
As for `N#CC(C#N)=c1ccc(=C2NCC3CCCN23)cc1` (configuration not stated), the result was inactive.
Same read-out and setting: the same measure for `C[N+]1(CCCC(O)CC[N+]2(C)CCCC2)CCCC1` (configuration not stated): “inactive”.
For the compound `COc1cc2c(cc1OC)C1c3ccccc3CCN1CCC2` (configuration not stated), the EC50 was greater than 200 µM and the IC50 was greater than 200 µM.
Turning to `CC(C)CC(C[C@@H](O)[C@H](Cc1ccccc1)NC(=O)O[C@H]1CCOC1)S(=O)(=O)c1ccccc1` (some centres not stated), the EC50 is 38.9 µM and the half-inhibitory concentration (IC50) worked out at 112 µM.
The like results for `COC(=O)[C@H](CCSC)NCc1cc(N(C)C)cc(CN[C@@H](CCSC)C(=O)OC)n1` were, in that order, greater than 200 µM and greater than 200 µM.
Taken in the same sequence, the figures for `CCN(Cc1ccccc1)c1ccc(/C=C/c2ccnc3ccccc23)cc1` were greater than 10.2 µM and 8.32 µM.
The like results for `Cc1ccc(N=NC(=O)NNc2ccc(C)cc2Br)c(Br)c1` were, in that order, greater than 200 µM and 35.5 µM.
Consider `C=CCCCCCCCCCOC1C=CC(OC(C)=O)C(COC(C)=O)O1` (configuration not stated), for which the EC50 was greater than 200 µM and the IC50 is 63.1 µM.
Taken in the same sequence, the figures for `CN(C)CCNC(=O)c1ccccc1Nc1c(Cl)cccc1Cl` were greater than 200 µM and 39.8 µM.
The like results for `CCN(CC)CCC1CCCCN1CC(=O)N1c2ccccc2NC(=O)CC1C` (configuration not stated) were, in that order, greater than 200 µM and greater than 200 µM.
As for `O=C1CN(Cc2ccccc2)CC(=O)N2C(c3ccccc3)CCCN12` (configuration not stated), the outcome was inactive.
With `COC(=O)[C@H](C)N1C(=O)N[C@@H](C(C)C)C1=O`, the EC50 was 0.617 µM and the 50% inhibitory concentration (IC50) is greater than 200 µM.
Taken in the same sequence, the figures for `O=C1C(=O)c2ccccc2C(O)=C1CCCC1CCC2CCCCC2C1` (configuration not stated) were greater than 200 µM and 8.32 µM.
The like results for `COc1cccc(/C=C2\C(=O)N(C(=O)c3ccc(NC(C)=O)cc3)N=C2C)c1` were, in that order, greater than 36.3 µM and greater than 36.3 µM.
Taken in the same sequence, the figures for `CCOC(=O)CN(c1sc(C)c(C)c1C(=O)OCC)S(=O)(=O)c1ccc(C)cc1` were greater than 200 µM and 11.7 µM.
In the case of `CC1(O)CC2C(CC1SCc1ccccc1)C2(C)C` (configuration not stated), the EC50 was greater than 200 µM; the IC50 is 34.7 µM and 20 µM.
Consider `c1ccc2nc3cc4c(cc3nc2c1)NC12CCCCC1CC1=C(CCCC1)N42` (configuration not stated), for which the EC50 was greater than 200 µM and the IC50 was 3.24 µM.
With `Cc1ccc(-n2c3nc(=O)n(C)c(=O)c-3nc3ccccc32)c(C)c1`, the result was inactive.
As to `O=C(n1[nH]c(=O)n(-c2ccc([N+](=O)[O-])cc2)c1=O)C(Cl)(Cl)Cl`, the EC50 was greater than 200 µM and the IC50 was greater than 200 µM.
Turning to `CCC(=O)c1ccc2c(c1)N(CCCN1CCN(CCO)CC1)c1ccccc1S2`, the EC50 is greater than 200 µM and the IC50 worked out at 9.33 µM.
Taken in the same sequence, the figures for `COC(=O)C1=CC(=O)OC1(OO)c1ccc(Br)cc1` (configuration not stated) were greater than 200 µM and 38.9 µM.
Turning to `COc1ccc(-n2nc(C)cc(Cl)c2=O)cc1`, the EC50 is greater than 145 µM and the half-inhibitory concentration (IC50) is greater than 145 µM.
Take `NC(CC(=O)N/C=N\O)C(=O)O` (configuration not stated): the EC50 was greater than 200 µM and the concentration for half-maximal inhibition (IC50) is greater than 200 µM.
For `CCOC(=O)c1ccc(CSc2ccccc2C(=O)O)c([N+](=O)[O-])c1`, the EC50 is greater than 14.5 µM and the IC50 is greater than 14.5 µM.
With `CCOC(=O)c1nc2cc(Cl)ccc2[nH]c1=O`, the EC50 is greater than 200 µM and the IC50 was found to be 105 µM.
Taken in the same sequence, the figures for `C[N+](C)(C)CC(=O)N/N=C(/Cc1cc(=O)oc2cc(O)ccc12)C(=O)Nc1ccc(Cl)cc1` were greater than 51.3 µM and greater than 51.3 µM.
Taken in the same sequence, the figures for `C=C1CC(C)(Cn2cnc3c(N)ncnc32)OC1=O` (configuration not stated) were greater than 200 µM and 11.2 µM.
`O=C1CN(O)C(c2ccccc2)=c2cc(Cl)ccc2=N1`: the EC50 was greater than 200 µM and the half-maximal inhibitory concentration (IC50) is greater than 200 µM.
`O=C(O)c1cc(Cc2cc(C(=O)O)c(O)c3ccccc23)c2ccccc2c1O`: the EC50 was greater than 0.813 µM and the half-inhibitory concentration (IC50) was greater than 0.813 µM.
With `NC(=O)C1=CN(Cc2ccc(F)cc2)c2ccccc2C1S(=O)(=O)O` (configuration not stated), the result was inactive and the IC50 was found to be 245 µM.
As to `CC(=N/N=C/c1ccccn1)/C(C)=N/N=C(C)/C(C)=N/N=C(C)/C(C)=N/N=C(C)/C(C)=N\N=C\c1ccccn1`, the result was inactive.
On to `Cc1nc2c(c(=O)[nH]1)C1CCCCCCCN1C(=S)N2C` (configuration not stated), for which the EC50 was greater than 200 µM and the IC50 was 132 µM.
In the case of `O=C(COc1ccc(/C=C/C(=O)c2ccc(Cl)cc2)cc1)Nc1c(Cl)cccc1Cl`, the EC50 is greater than 40.7 µM and the IC50 is greater than 40.7 µM.
On to `C=CCC1NCCC2=C1C(S(=O)(=O)c1ccc(C)cc1)c1ccccc12` (configuration not stated), for which the EC50 is greater than 200 µM and the IC50 came to 10.5 µM.
Taken in the same sequence, the figures for `NC(=O)CCN(CCC(N)=O)CCC(N)=O` were greater than 200 µM and greater than 200 µM.
Taken in the same sequence, the figures for `CCCCC1C=Cn2c(=O)oc3c(OC(C)C)c(OC(C)C)c(O)c1c32` (configuration not stated) were greater than 200 µM and 13.2 µM.
In the case of `CC1=CC2OC3CC(OC(=O)/C=C/C=C/C(OCCC4=CC(=O)OC4)C(C)O)C(C)(C2(CO)CC1)C31CO1` (configuration not stated), the EC50 was greater than 67.6 µM and the half-inhibitory concentration (IC50) worked out at 1.51 µM.
Taken in the same sequence, the figures for `Nc1nc(Cl)cc(NCCC2(CO)CCC2)n1` were greater than 200 µM and greater than 200 µM.
